Measured values reported in patent US20130225543A1, “SPECIFIC REGULATION OF CYTOKINE LEVELS BY HDAC6 INHIBITORS” (Acetylon Pharmaceuticals, priority 2010, published 2013).

Assays:
[1] = target: T1, HDAC5 (Homo sapiens, UniProt Q9UQL6); experiment: Kinetic HDAC enzyme inhibition assay, HDAC5; assay type: biochemical; conditions: recombinant HDAC
T1 construct: purchased BPS Biosciencies (San Diego, Calif.)
Description: (§1) HDAC inhibitory activity of the compounds described in Table 1 is measured using a kinetic HDAC assay. Recombinant HDACs are obtained from BPS Biosciencies (San Diego, Calif.). […] Fluorescence measurements are obtained approximately once per minute using a multilabel plate reader. Data were analyzed using GraphPad Prism.

[2] = target: T2, HDAC2 (Homo sapiens, UniProt Q92769); experiment: Kinetic HDAC enzyme inhibition assay, HDAC2; assay type: biochemical; conditions: recombinant HDAC
T2 construct: purchased BPS Biosciencies (San Diego, Calif.)
T2 sequence (Q92769 whole entry): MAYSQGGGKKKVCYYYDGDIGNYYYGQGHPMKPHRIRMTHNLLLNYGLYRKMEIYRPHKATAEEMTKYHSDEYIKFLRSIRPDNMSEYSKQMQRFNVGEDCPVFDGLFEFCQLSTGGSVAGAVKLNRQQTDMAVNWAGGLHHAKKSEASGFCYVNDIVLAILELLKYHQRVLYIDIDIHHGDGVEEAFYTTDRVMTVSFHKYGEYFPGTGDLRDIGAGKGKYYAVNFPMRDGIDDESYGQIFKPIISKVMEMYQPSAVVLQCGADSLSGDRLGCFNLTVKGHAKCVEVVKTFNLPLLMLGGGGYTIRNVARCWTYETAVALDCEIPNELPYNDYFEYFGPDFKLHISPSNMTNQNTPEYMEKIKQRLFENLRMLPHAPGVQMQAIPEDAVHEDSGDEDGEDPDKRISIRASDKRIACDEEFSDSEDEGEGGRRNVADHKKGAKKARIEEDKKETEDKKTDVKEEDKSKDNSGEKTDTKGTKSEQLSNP
Description: as §1

[3] = target: T3, HDAC9 (Homo sapiens, UniProt Q9UKV0); experiment: Kinetic HDAC enzyme inhibition assay, HDAC9; assay type: biochemical; conditions: recombinant HDAC
T3 construct: purchased BPS Biosciencies (San Diego, Calif.)
T3 sequence (Q9UKV0 whole entry): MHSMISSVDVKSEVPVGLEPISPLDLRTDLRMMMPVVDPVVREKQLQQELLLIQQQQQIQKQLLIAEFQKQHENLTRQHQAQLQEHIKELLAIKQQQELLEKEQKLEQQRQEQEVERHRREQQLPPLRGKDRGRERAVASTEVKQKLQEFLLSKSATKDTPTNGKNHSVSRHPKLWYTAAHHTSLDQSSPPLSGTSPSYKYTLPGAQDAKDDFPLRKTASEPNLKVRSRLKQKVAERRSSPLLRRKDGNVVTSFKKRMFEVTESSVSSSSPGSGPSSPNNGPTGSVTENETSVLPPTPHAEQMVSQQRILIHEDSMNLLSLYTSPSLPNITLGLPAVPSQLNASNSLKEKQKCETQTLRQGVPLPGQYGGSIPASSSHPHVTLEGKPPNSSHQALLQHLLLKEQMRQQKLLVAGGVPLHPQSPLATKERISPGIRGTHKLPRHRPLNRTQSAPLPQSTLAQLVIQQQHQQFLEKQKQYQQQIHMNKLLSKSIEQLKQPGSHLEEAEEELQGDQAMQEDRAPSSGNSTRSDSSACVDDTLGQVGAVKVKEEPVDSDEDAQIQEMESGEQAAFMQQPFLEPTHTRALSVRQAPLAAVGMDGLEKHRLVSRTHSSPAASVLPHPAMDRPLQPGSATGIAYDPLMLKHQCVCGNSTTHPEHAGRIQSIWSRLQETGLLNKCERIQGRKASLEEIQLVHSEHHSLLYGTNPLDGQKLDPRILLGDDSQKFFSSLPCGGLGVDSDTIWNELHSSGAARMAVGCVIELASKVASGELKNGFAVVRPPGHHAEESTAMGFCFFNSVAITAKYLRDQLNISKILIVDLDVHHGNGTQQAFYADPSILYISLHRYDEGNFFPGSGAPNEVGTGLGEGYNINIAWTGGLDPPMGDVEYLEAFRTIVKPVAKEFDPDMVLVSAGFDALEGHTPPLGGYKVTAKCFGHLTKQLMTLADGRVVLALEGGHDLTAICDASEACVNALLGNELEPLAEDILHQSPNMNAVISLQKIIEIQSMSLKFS
Description: as §1

[4] = target: T4, HDAC7 (Homo sapiens, UniProt Q8WUI4); experiment: Kinetic HDAC enzyme inhibition assay, HDAC7; assay type: biochemical; conditions: recombinant HDAC
T4 construct: purchased BPS Biosciencies (San Diego, Calif.)
T4 sequence (Q8WUI4 1-952): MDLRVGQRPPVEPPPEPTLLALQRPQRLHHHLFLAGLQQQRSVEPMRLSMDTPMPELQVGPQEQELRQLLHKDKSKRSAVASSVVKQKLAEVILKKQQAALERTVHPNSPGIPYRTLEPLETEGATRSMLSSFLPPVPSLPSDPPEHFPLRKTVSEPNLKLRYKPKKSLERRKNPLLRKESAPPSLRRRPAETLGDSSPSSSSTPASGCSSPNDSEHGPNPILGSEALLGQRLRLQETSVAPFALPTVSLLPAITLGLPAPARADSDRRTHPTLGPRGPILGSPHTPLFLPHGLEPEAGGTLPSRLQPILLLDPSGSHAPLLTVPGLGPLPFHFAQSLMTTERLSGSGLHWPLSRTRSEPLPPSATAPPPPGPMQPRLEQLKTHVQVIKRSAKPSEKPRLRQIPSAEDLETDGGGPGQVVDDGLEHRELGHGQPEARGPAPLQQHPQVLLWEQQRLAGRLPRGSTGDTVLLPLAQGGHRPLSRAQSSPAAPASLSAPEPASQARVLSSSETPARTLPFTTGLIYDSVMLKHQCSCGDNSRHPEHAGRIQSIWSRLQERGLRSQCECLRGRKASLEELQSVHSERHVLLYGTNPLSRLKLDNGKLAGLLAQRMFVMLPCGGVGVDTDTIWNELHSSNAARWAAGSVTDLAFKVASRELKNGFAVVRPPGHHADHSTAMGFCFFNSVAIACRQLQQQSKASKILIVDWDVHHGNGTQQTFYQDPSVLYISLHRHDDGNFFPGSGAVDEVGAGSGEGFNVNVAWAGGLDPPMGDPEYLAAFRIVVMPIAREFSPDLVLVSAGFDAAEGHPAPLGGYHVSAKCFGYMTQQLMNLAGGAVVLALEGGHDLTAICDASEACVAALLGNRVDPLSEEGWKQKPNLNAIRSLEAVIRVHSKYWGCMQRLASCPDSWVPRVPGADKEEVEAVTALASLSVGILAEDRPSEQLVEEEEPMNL
Description: as §1

[5] = tested on: human PBMCs; experiment: LPS induced cytokine release from PBMCs; assay type: cell-based; conditions: 1 μM compound, 0.5 ng/ml LPS overnight
Description: Whole blood from three anonymous donors is collected in vacutainer tubes with sodium heparin as an anti-coagulant (Research Blood Components, Brighton, Mass.). A total volume of 30 ml of blood is diluted and layered over Ficoll-Paque Plus (GE Life Sciences) and centrifuged at 400×g for 30 minutes. The peripheral blood mononuclear cell (PBMC) fraction is removed from the interface of plasma and Ficoll and washed once with PBS.
Cells are seeded in 24 well plates at a density of 400,000 cells per well.
After the overnight stimulation the plates are centrifuged at 200×g for 5 minutes. The supernatant is removed and a small aliquot is reserved for determination of TNFα levels by ELISA (R&D Systems, catalog number STA00C). The remainder of the supernatant is frozen at −80° C. and sent to Millipore Bioscience Division (St. Charles, Mo.) for multiplex cytokine analysis.

[6] = target: T5, HDAC4 (Homo sapiens, UniProt P56524); experiment: Kinetic HDAC enzyme inhibition assay, HDAC4; assay type: biochemical; conditions: recombinant HDAC
T5 construct: purchased BPS Biosciencies (San Diego, Calif.)
T5 sequence (P56524 whole entry): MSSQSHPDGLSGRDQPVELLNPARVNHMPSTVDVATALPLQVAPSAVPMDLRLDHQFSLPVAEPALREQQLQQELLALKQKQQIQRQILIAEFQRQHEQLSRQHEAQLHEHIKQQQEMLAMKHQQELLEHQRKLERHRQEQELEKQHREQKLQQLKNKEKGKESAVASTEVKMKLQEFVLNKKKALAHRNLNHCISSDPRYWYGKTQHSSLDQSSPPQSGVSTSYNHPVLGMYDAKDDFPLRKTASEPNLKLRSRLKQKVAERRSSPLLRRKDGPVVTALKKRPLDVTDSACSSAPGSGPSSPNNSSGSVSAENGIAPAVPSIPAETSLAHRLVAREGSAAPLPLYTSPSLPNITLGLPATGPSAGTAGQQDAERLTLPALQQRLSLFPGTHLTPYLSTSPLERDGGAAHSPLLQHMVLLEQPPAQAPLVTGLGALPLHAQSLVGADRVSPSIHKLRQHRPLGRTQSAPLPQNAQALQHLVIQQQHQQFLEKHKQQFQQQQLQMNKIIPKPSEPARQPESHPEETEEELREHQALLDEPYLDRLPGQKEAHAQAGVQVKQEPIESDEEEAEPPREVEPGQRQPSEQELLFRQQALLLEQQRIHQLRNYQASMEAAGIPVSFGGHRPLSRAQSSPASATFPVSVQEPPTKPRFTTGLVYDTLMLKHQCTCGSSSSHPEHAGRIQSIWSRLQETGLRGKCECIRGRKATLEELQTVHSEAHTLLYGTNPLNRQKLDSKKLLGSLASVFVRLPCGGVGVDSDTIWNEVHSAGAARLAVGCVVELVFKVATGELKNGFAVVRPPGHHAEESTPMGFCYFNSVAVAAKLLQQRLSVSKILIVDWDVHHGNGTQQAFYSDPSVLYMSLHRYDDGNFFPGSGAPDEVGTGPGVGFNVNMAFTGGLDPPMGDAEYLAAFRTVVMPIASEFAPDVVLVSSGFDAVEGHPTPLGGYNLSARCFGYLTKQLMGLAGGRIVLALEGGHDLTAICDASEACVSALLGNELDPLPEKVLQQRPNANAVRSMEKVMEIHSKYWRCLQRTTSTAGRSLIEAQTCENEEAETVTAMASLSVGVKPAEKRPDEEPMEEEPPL
Description: as §1

[7] = target: T6, HDAC1 (Homo sapiens, UniProt Q13547); experiment: Kinetic HDAC enzyme inhibition assay, HDAC1; assay type: biochemical; conditions: recombinant HDAC
T6 construct: purchased BPS Biosciencies (San Diego, Calif.)
T6 sequence (Q13547 whole entry): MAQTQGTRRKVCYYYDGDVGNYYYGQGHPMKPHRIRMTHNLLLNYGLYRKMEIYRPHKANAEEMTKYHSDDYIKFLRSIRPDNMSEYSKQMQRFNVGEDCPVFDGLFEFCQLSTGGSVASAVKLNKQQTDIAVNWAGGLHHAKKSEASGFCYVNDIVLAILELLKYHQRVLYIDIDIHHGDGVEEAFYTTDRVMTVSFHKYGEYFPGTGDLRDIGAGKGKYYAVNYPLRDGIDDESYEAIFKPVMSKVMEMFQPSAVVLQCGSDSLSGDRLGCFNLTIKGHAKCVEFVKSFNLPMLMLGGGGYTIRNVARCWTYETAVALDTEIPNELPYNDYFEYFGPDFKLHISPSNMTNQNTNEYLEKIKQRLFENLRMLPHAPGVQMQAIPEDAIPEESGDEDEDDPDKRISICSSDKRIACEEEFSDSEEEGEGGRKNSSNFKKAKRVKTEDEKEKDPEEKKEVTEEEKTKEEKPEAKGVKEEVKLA
Description: as §1

[8] = tested on: RAW264.7 mouse macrophages; experiment: TNFα protein and mRNA in LPS stimulated RAW264.7 macrophages; assay type: cell-based; conditions: 10 ng/ml LPS, two hours; for TNFα protein level in supernatant: ELISA; for TNFα mRNA level: RT-PCR relative to GAPDH
Description: The cells are stimulated with 10 ng/ml LPS and incubated for two hours. The cell supernatants are collected and assayed for the level of TNFα by ELISA. The cells are harvested and mRNA purified using an RNEasy kit from Qiagen. The level of TNFα mRNA is determined by RT-PCR using a StepOne Plus real time PCR machine. The change in the relative level of TNFα mRNA as compared to the level of GAPDH mRNA is plotted, along with the concentration of TNFα protein in the supernatant (see FIG. 4).

[9] = tested on: collagen induced arthritis; experiment: Collagen induced arthritis in mice; assay type: in vivo, male DBA/1OlaHsd mice; conditions: 30 mg/kg twice daily injection from Day 18
Description: To test these two HDAC6 inhibitors in an animal model of a chronic inflammatory disease a mouse collagen induced arthritis in a semi-therapeutic mode is used. In this study male DBA/1OlaHsd mice, 6 weeks old, are anesthetized with Isoflurane and given 150 μL Type II collagen in Freund's complete adjuvant on Day 0 and Day 21. Treatment with compound is initiated on Day 18. The mice in the treatment groups are injected twice daily with 30 mg/kg of compound in 10% DMSO/10% Solutol HS15/80% 0.9% saline. […] Inflammation in the joints is measured daily and a disease score is calculated based on paw thickness.

[10] = tested on: proinflammatory cytokines; conditions: Leoni et al. 2002, 2005; cited from earlier work
[11] = tested on: IL-1β; conditions: Carta et al. 2006; cited from earlier work
[12] = tested on: Class I HDACs and HDAC6; conditions: Bradner et al. 2010; cited from earlier work

T1 sequence (Q9UQL6 whole entry): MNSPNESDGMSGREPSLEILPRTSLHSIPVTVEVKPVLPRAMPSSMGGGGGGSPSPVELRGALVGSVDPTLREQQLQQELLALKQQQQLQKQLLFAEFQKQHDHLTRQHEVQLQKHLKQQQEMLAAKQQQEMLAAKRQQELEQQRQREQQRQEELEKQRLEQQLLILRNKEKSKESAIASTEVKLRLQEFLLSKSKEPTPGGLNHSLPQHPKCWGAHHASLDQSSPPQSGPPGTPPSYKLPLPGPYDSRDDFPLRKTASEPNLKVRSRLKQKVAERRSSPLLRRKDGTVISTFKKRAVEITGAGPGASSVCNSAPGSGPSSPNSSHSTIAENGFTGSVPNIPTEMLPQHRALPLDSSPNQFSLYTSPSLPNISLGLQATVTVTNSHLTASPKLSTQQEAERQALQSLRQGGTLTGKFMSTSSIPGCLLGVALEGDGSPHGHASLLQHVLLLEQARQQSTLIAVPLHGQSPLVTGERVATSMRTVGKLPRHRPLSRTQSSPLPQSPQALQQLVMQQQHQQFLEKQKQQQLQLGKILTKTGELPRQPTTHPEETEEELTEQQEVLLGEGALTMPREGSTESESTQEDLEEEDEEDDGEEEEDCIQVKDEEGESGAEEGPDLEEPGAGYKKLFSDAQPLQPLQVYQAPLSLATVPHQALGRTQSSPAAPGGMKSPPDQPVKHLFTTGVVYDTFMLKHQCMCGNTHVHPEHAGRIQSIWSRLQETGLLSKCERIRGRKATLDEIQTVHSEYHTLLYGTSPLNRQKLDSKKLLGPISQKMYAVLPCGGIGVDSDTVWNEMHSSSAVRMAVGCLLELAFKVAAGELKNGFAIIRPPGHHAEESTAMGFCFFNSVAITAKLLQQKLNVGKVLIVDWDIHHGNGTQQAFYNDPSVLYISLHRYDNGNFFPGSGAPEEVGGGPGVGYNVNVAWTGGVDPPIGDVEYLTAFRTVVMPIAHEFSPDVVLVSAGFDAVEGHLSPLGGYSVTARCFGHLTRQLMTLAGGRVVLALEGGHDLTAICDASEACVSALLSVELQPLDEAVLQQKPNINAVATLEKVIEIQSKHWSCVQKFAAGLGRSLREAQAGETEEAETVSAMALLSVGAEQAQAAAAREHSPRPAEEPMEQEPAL

SMILES | IC50 [1] [µM] | IC50 [2] [nM] | IC50 [3] [µM] | IC50 [4] [µM] | Number of LPS induced cytokines decreased (of eight) [5] | IC50 [6] [µM] | IC50 [7] [nM] | Level of synthesis or intracellular localization of the precursors of IL-1β [11] | Secretion of mature IL-1β [11] | other results
Cc1ccccc1N(c1ccccc1)c1ncc(C(=O)NCCCCCCC(=O)NO)cn1 [ACY-216] | > 10 | 131 | > 10 | > 10 | three of eight | > 10 | 57 |  |  | 
O=C(NO)c1cnc(NC2(c3ccccc3)CC2)nc1 [ACY-738] | 0.882 |  | 0.914 | 1.6 |  | 1.6 |  |  |  | TNFα protein level in supernatant [8]: inhibition; TNFα protein level in supernatant ([8]; listed as ACY-739): decreases; TNFα mRNA level [8]: inhibition; TNFα mRNA level ([8]; listed as ACY-739): decreases
COC(c1ccc(F)cc1)(c1ccc(F)cc1)c1ccc(C(=O)NCCCCCCC(=O)NO)cc1 [ACY-257] | 8.2 | 450 | > 10 | > 10 | five of eight | > 10 | 178 |  |  | Decrease of severity of disease (average) [9]: 50%; Effect on production of GM-CSF [5]: significantly decreasing; Effect on production of IL-1β [5]: significantly decreasing; Effect on production of IL-6 [5]: significantly decreasing; Effect on production of IL-7 [5]: no effect; Effect on production of IL-8 [5]: no effect; Effect on production of IL-10 [5]: significantly decreasing; Effect on production of MCP-1 [5]: no effect; Effect on production of TNF-α [5]: significantly decreasing
O=C(CCCCCCC(=O)Nc1ccccc1)NO [SAHA, Suberoylanilide hydroxamic acid] |  |  |  |  | six out of eight |  |  | do not affect | inhibit secretion | Levels of proinflammatory cytokines [10]: non-specifically reduce
CC(/C=C/C(=O)NO)=C\[C@@H](C)C(=O)c1ccc(N(C)C)cc1 [Trichostatin A] |  |  |  |  |  |  |  | do not affect | inhibit secretion | 
C[C@@H]1NC(=O)[C@H]2CCCN2C(=O)[C@H](CCCCCC(=O)[C@@H]2CO2)NC(=O)[C@@H](C)NC1=O [HC-toxin] |  |  |  |  |  |  |  | do not affect | inhibit secretion | 
O=C(CCCCCCC(=O)Nc1ccc([C@H]2O[C@@H](CSc3nc(-c4ccccc4)c(-c4ccccc4)o3)C[C@@H](c3ccc(CO)cc3)O2)cc1)NO [tubacin] |  |  |  |  |  |  |  | do not affect | inhibit secretion | 
CCN(CC)Cc1ccc2cc(COC(=O)Nc3ccc(C(=O)NO)cc3)ccc2c1 [ITF2357] |  |  |  |  |  |  |  | do not affect | inhibit secretion | Levels of proinflammatory cytokines [10]: non-specifically reduce; HDAC class selectivity [12]: selective for Class I HDACs and HDAC6 but not Class IIa
O=C(CCCCCCNC(=O)c1ccc(C(O)(c2ccccn2)c2ccccn2)cc1)NO [ACY-251] | 5.9 | 96 | > 10 | > 10 |  | > 10 | 45 |  |  | 
O=C(CCCCCCNC(=O)c1cnc(N(c2ccccc2)c2ccccc2)nc1)NO [ACY-63] |  |  |  |  |  |  |  |  |  | Decrease of severity of disease (average) [9]: 67%
